Experimental data: ChEMBL document CHEMBL5696442, “Discovery of type II inhibitors of TGFβ-activated kinase 1 (TAK1) and mitogen-activated protein kinase kinase kinase kinase 2 (MAP4K2)” (J Med Chem, 2015)
Active and inactive are the calls of the source. The calls are words filed in the database; no cut-off is given here.

Experiments:
[1] = molecular target: Phosphatidylinositol 4,5-bisphosphate 3-kinase catalytic subunit gamma isoform (Homo sapiens) (UniProt P48736); experiment: Inhibition of PIK3CG (unknown origin) at 1 uM by Ambit Kinomescan binding assay relative to control; values are per cent of control
[2] = molecular target: Atypical kinase COQ8B, mitochondrial (Homo sapiens) (UniProt Q96D53); experiment: Inhibition of ADCK4 (unknown origin) at 1 uM by Ambit Kinomescan binding assay relative to control
[3] = molecular target: Mitogen-activated protein kinase 14 (Homo sapiens, UniProt Q16539); experiment: Inhibition of p38 alpha in human A-375 cells at 0.05 uM by KiNativ Profiling analysis relative to control; type: cell-based
[4] = molecular target: T1, Ephrin type-B receptor 2 (Homo sapiens) (UniProt P29323); experiment: Inhibition of EPHB2 (unknown origin) at 1 uM by Ambit Kinomescan binding assay relative to control
T1 sequence (whole entry): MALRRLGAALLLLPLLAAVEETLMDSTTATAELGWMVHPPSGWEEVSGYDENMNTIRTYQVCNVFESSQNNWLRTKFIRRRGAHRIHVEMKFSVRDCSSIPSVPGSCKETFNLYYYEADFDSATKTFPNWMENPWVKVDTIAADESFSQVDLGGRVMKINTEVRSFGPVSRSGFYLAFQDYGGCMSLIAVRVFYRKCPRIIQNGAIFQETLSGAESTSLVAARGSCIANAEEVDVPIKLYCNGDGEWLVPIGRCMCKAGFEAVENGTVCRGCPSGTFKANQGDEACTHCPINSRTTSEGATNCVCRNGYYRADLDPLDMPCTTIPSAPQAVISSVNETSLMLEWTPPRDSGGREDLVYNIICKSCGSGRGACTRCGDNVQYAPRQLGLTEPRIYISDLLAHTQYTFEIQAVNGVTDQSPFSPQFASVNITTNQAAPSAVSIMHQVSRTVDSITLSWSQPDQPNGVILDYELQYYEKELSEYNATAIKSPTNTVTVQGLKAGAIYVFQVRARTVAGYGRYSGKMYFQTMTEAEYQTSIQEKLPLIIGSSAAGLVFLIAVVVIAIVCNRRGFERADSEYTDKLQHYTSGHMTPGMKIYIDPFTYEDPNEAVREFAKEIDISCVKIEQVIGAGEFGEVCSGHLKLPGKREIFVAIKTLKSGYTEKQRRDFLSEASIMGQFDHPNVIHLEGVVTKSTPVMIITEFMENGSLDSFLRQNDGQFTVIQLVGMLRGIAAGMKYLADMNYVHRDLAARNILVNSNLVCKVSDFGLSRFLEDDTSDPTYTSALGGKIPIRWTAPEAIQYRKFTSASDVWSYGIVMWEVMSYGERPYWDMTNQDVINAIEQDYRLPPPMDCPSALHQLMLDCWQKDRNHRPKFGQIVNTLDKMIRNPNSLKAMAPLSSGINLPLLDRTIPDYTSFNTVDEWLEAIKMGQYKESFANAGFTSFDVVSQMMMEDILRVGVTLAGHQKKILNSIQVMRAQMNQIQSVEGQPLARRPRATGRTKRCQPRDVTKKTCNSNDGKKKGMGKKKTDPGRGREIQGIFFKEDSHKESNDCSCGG

[5] = molecular target: Cyclin-dependent kinase 13 (Homo sapiens) (UniProt Q14004); experiment: Inhibition of CHED K2 labeling site in human Huh-7 cells at 1 uM by KiNativ Profiling analysis relative to control; type: cell-based
[6] = molecular target: Serine/threonine-protein kinase Aurora (Homo sapiens) (UniProt Q96GD4+Q9UQB9+O14965); experiment: Inhibition of AurA/B/C ATP labeling site in human Huh-7 cells at 10 uM by KiNativ Profiling analysis relative to control; type: cell-based
[7] = molecular target: Serine/threonine-protein kinase N2 (Homo sapiens) (UniProt Q16513); experiment: Inhibition of PKN2 Lys2 labeling site in human A-375 cells at 0.5 uM by KiNativ Profiling analysis relative to control; type: cell-based
[8] = system: Receptor-type tyrosine-protein kinase FLT3 (Homo sapiens), P36888 [D835Y]; experiment: Inhibition of FLT3 D835Y mutant (unknown origin) at 10 uM by Ambit Kinomescan binding assay relative to control
[9] = molecular target: Mitogen-activated protein kinase kinase kinase 4 (Homo sapiens) (UniProt Q9Y6R4); experiment: Inhibition of MAP3K4 Lys2 labeling site in human Huh-7 cells at 1 uM by KiNativ Profiling analysis relative to control; type: cell-based
[10] = molecular target: Serine/threonine-protein kinase Nek4 (Homo sapiens) (UniProt P51957); experiment: Inhibition of NEK4 Lys2 labeling site in human Huh-7 cells at 1 uM by KiNativ Profiling analysis relative to control; type: cell-based
[11] = molecular target: T2, Serine/threonine-protein kinase tousled-like 1 (Homo sapiens) (UniProt Q9UKI8); experiment: Inhibition of TLK1 Lys2 labeling site in human Huh-7 cell lysate at 1 uM by KiNativ Profiling analysis relative to control; type: subcellular
T2 sequence (whole entry): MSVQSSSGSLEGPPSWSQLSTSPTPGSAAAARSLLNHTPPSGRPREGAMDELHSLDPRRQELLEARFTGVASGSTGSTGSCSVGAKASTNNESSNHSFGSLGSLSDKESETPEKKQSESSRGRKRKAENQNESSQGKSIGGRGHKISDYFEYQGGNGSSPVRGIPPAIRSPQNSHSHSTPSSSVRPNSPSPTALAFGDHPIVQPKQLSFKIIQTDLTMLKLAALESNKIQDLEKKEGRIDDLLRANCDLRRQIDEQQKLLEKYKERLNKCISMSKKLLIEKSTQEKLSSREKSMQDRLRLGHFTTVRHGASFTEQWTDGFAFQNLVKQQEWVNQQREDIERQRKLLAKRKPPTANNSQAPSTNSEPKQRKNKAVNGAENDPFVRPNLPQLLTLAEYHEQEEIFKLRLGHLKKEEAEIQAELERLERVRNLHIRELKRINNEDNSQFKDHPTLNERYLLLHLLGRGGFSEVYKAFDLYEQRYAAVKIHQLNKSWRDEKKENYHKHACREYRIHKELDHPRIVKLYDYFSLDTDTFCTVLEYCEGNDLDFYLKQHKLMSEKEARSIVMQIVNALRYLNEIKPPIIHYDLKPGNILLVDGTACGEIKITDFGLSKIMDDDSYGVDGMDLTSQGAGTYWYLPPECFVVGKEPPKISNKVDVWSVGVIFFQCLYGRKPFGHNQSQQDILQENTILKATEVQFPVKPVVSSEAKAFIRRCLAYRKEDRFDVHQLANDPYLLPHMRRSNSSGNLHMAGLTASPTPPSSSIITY

[12] = molecular target: Calcium/calmodulin-dependent protein kinase type II subunit alpha (Homo sapiens) (UniProt Q9UQM7); experiment: Inhibition of CaMK2a Lys2 labeling site in human Huh-7 cells at 1 uM by KiNativ Profiling analysis relative to control; type: cell-based
Sequence of Calcium/calmodulin-dependent protein kinase type II subunit alpha (Homo sapiens) (Q9UQM7 whole entry): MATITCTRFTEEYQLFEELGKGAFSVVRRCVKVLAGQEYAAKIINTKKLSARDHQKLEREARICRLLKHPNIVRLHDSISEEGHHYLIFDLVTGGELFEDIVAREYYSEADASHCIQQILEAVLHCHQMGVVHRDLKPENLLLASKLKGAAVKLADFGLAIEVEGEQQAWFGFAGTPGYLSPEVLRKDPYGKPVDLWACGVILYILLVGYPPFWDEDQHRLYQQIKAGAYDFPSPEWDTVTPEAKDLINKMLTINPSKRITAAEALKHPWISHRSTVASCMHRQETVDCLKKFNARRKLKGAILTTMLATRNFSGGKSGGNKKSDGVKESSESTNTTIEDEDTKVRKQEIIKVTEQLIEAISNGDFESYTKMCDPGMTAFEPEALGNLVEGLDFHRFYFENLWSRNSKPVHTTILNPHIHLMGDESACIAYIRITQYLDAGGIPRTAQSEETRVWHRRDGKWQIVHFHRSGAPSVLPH

Sequence of Cyclin-dependent kinase 13 (Homo sapiens) (Q14004 whole entry, looked up): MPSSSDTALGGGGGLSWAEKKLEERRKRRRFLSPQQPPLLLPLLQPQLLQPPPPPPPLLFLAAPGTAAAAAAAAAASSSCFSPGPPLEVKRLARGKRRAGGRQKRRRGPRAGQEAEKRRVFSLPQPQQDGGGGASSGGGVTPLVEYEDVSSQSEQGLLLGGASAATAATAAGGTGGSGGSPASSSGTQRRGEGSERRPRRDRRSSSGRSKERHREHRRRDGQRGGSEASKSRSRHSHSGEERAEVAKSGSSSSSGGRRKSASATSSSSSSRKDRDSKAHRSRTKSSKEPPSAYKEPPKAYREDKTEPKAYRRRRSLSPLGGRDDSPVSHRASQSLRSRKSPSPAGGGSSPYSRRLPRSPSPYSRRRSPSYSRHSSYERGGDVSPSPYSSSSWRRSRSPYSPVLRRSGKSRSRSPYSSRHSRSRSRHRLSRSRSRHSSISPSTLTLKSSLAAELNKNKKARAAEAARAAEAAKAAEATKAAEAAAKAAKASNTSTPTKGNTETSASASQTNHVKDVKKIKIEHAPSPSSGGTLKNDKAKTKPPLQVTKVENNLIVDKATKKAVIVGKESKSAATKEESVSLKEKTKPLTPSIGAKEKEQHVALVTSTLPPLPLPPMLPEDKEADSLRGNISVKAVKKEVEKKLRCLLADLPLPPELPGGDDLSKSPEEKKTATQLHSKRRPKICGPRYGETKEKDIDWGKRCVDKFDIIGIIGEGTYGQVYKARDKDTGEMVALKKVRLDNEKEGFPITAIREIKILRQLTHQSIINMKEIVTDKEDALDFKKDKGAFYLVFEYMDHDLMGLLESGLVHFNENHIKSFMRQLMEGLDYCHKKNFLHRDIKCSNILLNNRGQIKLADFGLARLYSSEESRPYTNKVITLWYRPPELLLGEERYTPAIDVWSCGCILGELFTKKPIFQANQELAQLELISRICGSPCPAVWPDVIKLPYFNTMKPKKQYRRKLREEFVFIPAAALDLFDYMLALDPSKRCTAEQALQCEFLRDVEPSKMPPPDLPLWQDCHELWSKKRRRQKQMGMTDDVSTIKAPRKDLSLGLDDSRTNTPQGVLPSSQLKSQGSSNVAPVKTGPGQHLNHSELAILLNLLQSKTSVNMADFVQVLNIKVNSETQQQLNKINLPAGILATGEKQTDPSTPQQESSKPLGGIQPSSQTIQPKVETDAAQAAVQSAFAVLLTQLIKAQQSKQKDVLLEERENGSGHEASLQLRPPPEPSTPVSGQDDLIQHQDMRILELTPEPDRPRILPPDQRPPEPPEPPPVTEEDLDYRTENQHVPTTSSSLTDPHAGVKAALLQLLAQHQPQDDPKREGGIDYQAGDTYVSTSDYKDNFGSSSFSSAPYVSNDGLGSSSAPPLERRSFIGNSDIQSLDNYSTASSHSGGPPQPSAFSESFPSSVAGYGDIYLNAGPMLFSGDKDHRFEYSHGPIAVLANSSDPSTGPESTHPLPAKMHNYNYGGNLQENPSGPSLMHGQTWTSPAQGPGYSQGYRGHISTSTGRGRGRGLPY
Sequence of Serine/threonine-protein kinase N2 (Homo sapiens) (Q16513 whole entry, looked up): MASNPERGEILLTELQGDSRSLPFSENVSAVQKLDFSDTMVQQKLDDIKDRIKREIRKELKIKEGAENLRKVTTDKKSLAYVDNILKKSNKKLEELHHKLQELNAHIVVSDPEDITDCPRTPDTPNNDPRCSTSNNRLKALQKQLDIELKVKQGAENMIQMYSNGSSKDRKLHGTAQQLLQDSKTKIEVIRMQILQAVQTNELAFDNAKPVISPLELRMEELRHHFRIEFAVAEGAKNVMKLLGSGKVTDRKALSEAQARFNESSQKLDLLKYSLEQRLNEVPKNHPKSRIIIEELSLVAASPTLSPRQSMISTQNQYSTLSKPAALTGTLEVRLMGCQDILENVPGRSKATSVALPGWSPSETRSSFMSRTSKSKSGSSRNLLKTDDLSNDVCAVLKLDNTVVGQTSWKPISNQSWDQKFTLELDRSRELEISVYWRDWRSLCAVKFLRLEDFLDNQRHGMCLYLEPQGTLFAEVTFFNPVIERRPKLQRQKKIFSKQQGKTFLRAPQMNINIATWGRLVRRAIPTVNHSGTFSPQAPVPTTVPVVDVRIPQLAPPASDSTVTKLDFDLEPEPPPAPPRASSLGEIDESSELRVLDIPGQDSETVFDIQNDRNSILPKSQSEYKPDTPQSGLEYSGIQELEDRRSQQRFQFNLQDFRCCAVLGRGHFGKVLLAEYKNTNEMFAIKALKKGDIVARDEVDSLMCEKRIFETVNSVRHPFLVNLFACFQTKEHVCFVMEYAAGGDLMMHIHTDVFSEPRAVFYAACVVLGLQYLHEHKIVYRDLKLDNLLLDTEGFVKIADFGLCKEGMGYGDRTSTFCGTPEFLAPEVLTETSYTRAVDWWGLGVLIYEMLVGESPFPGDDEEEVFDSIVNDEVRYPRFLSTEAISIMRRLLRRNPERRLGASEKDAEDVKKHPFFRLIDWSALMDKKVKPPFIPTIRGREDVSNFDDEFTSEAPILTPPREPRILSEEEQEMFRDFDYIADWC
Sequence of Mitogen-activated protein kinase 14 (Q16539 whole entry): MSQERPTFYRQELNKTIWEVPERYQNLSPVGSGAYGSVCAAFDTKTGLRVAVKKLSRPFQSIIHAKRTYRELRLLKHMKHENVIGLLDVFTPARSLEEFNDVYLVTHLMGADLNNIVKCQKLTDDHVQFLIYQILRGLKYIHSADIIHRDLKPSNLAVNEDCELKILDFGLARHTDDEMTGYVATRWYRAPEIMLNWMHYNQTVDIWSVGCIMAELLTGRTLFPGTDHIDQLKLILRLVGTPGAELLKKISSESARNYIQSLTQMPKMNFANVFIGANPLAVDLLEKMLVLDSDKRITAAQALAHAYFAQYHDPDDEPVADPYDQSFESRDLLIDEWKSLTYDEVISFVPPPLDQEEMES
Sequence of Serine/threonine-protein kinase Aurora (Homo sapiens) (O14965 whole entry, looked up): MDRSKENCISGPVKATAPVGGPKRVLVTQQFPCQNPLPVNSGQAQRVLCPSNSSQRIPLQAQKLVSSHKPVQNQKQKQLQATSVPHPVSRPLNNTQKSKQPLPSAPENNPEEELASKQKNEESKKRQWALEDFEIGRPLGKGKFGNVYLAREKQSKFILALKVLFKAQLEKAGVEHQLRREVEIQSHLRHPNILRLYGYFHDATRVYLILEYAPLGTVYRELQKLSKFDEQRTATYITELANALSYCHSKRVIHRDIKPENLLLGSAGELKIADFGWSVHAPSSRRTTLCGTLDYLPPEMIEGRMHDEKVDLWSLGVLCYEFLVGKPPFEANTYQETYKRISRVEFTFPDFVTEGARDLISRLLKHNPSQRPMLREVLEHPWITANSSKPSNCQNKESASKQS
Sequence of Serine/threonine-protein kinase Aurora (Homo sapiens) (Q96GD4 whole entry, looked up): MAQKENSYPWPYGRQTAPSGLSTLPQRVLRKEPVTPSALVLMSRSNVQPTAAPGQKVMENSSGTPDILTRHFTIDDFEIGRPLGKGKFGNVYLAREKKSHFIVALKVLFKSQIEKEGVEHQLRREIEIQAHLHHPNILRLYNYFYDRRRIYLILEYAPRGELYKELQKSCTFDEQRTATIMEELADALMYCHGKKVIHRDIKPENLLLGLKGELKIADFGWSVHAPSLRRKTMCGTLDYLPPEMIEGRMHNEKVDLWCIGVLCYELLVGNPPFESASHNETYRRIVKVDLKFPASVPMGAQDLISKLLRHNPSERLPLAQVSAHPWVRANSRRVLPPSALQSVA
Sequence of Serine/threonine-protein kinase Aurora (Homo sapiens) (Q9UQB9 whole entry, looked up): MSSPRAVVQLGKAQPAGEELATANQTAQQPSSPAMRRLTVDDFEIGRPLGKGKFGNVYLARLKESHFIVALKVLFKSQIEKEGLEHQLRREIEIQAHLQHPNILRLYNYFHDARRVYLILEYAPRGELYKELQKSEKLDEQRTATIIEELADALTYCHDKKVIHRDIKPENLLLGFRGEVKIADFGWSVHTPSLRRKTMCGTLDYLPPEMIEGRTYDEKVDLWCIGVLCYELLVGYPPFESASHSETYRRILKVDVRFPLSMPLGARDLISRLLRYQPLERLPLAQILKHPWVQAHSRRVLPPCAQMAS
Sequence of Atypical kinase COQ8B, mitochondrial (Homo sapiens) (Q96D53 whole entry): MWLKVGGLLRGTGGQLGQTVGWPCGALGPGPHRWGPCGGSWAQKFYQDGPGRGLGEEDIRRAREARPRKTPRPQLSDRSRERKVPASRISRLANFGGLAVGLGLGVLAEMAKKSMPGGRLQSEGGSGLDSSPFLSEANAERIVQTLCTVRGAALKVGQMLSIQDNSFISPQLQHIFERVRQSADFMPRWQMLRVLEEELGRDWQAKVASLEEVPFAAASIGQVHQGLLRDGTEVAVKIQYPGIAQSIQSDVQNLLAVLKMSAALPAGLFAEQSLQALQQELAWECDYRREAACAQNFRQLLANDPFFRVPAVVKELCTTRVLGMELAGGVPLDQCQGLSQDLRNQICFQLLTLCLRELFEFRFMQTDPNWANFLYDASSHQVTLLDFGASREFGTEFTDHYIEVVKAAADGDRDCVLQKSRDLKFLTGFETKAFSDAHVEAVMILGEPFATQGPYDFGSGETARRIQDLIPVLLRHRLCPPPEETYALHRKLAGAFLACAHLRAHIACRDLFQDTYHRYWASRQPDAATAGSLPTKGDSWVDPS

CCN1CCN(Cc2ccc(NC(=O)c3ccc(C)c(/C=C/c4cnc5[nH]ccc5c4OC)c3)cc2C(F)(F)F)CC1
residual activity [1]: 100% | inhibition [2]: 81% | inhibition [3]: 73.1% | inhibition [4]: 5.8%

CCN1CCN(Cc2ccc(NC(=O)c3ccc(C)c(Oc4ccnc5[nH]ccc45)c3)cc2C(F)(F)F)CC1
inhibition [5]: inactive | inhibition [6]: 4.1% | inhibition [7]: -5.6% | inhibition [8]: 14%

CNc1cc(Oc2cc(C(=O)Nc3cc(N4CCN(C)CC4)cc(C(F)(F)F)c3)ccc2C)ncn1
inhibition [9]: 77% | inhibition [10]: 43.4% | inhibition [11]: 1% | inhibition [12]: 20.3%
